Data from PMC9954146, “Anti-Leukaemic Activity of Rilpivirine Is Mediated by Aurora A Kinase Inhibition” (Cancers, 2023).

Key:
Experiment in all cases: Kinase panel
Assay type in all cases: biochemical
Conditions in all cases: read-out: % Residual Activity
[1] = target: T1, IGF-1R(h) (Homo sapiens, UniProt P08069)
T1 construct: purchased Eurofins (KinaseProfiler)
In short: (§1)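 Steps: profile rilpivirine against a broad kinase panel; determine IC50 by radioactive assay using ATP at the kinase-specific Km; convert IC50 to Ki by the Cheng–Prusoff relationship.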

[2] = target: T2, cKit(D816H)(h) (Homo sapiens, UniProt P10721, D816H)
T2 construct: purchased Eurofins (KinaseProfiler)
In short: as §1

[3] = target: T3, Flt3(D835Y)(h) (Homo sapiens, UniProt P36888, D835Y)
T3 construct: purchased Eurofins (KinaseProfiler)
In short: as §1

[4] = target: T4, MST4(h) (Homo sapiens, UniProt Q9P289)
T4 construct: purchased Eurofins (KinaseProfiler)
In short: as §1

[5] = target: T5, HPK1(h) (Homo sapiens, UniProt Q92918)
T5 construct: purchased Eurofins (KinaseProfiler)
In short: as §1

[6] = target: T6, EphB3(h) (Homo sapiens, UniProt P54753)
T6 construct: purchased Eurofins (KinaseProfiler)
In short: as §1

[7] = target: T7, ALK6(h) (Homo sapiens, UniProt O00238)
T7 construct: purchased Eurofins (KinaseProfiler)
In short: as §1

[8] = target: T8, RIPK2(h) (Homo sapiens, UniProt O43353)
T8 construct: purchased Eurofins (KinaseProfiler)
In short: as §1

[9] = target: T9, MLCK(h) (Homo sapiens, UniProt Q15746)
T9 construct: purchased Eurofins (KinaseProfiler)
In short: as §1

[10] = target: T10, NEK6(h) (Homo sapiens, UniProt Q9HC98)
T10 construct: purchased Eurofins (KinaseProfiler)
In short: as §1

[11] = target: T11, ULK3(h) (Homo sapiens, UniProt Q6PHR2)
T11 construct: purchased Eurofins (KinaseProfiler)
In short: as §1

[12] = target: T12, CK2α1(h) (Homo sapiens, UniProt P68400)
T12 construct: purchased Eurofins (KinaseProfiler)
In short: as §1

[13] = target: T13, DRAK2(h) (Homo sapiens, UniProt O94768)
T13 construct: purchased Eurofins (KinaseProfiler)
In short: as §1

[14] = target: T14, GRK6(h) (Homo sapiens, UniProt P43250)
T14 construct: purchased Eurofins (KinaseProfiler)
In short: as §1

[15] = target: T15, CDKL1(h) (Homo sapiens, UniProt Q00532)
T15 construct: purchased Eurofins (KinaseProfiler)
In short: as §1

[16] = target: T16, ZIPK(h) (Homo sapiens, UniProt O43293)
T16 construct: purchased Eurofins (KinaseProfiler)
In short: as §1

[17] = target: T17, Abl (Q252H) (h) (Homo sapiens, UniProt P00519, Q252H)
T17 construct: purchased Eurofins (KinaseProfiler)
In short: as §1

[18] = target: T18, TAK1(h) (Homo sapiens, UniProt O43318)
T18 construct: purchased Eurofins (KinaseProfiler)
In short: as §1

[19] = target: T19, MEKK2(h) (Homo sapiens, UniProt Q9Y2U5)
T19 construct: purchased Eurofins (KinaseProfiler)
In short: as §1

[20] = target: T20, STK25(h) (Homo sapiens, UniProt O00506)
T20 construct: purchased Eurofins (KinaseProfiler)
In short: as §1

[21] = target: T21, p70S6K(h) (Homo sapiens, UniProt P23443)
T21 construct: purchased Eurofins (KinaseProfiler)
In short: as §1

[22] = target: T22, ARK5(h) (Homo sapiens, UniProt O60285)
T22 construct: purchased Eurofins (KinaseProfiler)
In short: as §1

[23] = target: T23, CDK14/cyclinY(h) (Homo sapiens, UniProt O94921)
T23 construct: purchased Eurofins (KinaseProfiler)
In short: as §1

[24] = target: T24, MST1(h) (Homo sapiens, UniProt Q13043)
T24 construct: purchased Eurofins (KinaseProfiler)
In short: as §1

[25] = target: T25, MSK2(h) (Homo sapiens, UniProt O75676)
T25 construct: purchased Eurofins (KinaseProfiler)
In short: as §1

[26] = target: T26, Lck(h) activated (Homo sapiens, UniProt P06239)
T26 construct: purchased Eurofins (KinaseProfiler)
In short: as §1

[27] = target: T27, GRK2(h) (Homo sapiens, UniProt P25098)
T27 construct: purchased Eurofins (KinaseProfiler)
In short: as §1

[28] = target: T28, CDK2/cyclinE(h) (Homo sapiens, UniProt P24941)
T28 construct: purchased Eurofins (KinaseProfiler)
In short: as §1

[29] = target: T29, MAP4K5(h) (Homo sapiens, UniProt Q9Y4K4)
T29 construct: purchased Eurofins (KinaseProfiler)
In short: as §1

[30] = target: T30, PI3 Kinase (p120g)(h) (Homo sapiens, UniProt P48736)
T30 construct: purchased Eurofins (KinaseProfiler)
In short: as §1

[31] = target: T31, Lck(h) (Homo sapiens, UniProt P06239)
T31 construct: purchased Eurofins (KinaseProfiler)
In short: as §1

[32] = target: T32, AMPKα2(h) (Homo sapiens, UniProt P54646)
T32 construct: purchased Eurofins (KinaseProfiler)
In short: as §1

[33] = target: T33, OSR1(h) (Homo sapiens, UniProt O95747)
T33 construct: purchased Eurofins (KinaseProfiler)
In short: as §1

[34] = target: T34, SRPK1(h) (Homo sapiens, UniProt Q96SB4)
T34 construct: purchased Eurofins (KinaseProfiler)
In short: as §1

[35] = target: T35, EGFR(T790M,L858R)(h) (Homo sapiens, UniProt P00533, L858R/T790M)
T35 construct: purchased Eurofins (KinaseProfiler)
In short: as §1

[36] = target: T36, CDK16/cyclinY(h) (Homo sapiens, UniProt Q00536)
T36 construct: purchased Eurofins (KinaseProfiler)
In short: as §1

[37] = target: T37, Flt4(h) (Homo sapiens, UniProt P35916)
T37 construct: purchased Eurofins (KinaseProfiler)
In short: as §1

[38] = target: T38, MKK4(m) (Mus musculus, UniProt P47809)
T38 construct: purchased Eurofins (KinaseProfiler)
In short: as §1

T8 sequence (O43353 whole entry): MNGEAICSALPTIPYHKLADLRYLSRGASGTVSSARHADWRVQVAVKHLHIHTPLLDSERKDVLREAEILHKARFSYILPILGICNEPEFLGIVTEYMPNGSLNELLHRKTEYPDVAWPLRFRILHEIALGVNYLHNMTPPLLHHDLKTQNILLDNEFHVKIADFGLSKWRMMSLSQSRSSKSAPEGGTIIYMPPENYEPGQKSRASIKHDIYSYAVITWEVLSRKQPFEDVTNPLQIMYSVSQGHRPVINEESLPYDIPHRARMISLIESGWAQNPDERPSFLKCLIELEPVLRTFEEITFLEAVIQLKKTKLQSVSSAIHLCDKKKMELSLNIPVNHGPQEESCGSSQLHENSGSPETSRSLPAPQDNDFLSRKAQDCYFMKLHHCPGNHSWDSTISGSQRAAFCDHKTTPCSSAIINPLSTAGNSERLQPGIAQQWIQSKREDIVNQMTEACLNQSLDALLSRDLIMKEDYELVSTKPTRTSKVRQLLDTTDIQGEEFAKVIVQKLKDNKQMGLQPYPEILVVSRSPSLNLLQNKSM
T1 sequence (P08069 31-1367): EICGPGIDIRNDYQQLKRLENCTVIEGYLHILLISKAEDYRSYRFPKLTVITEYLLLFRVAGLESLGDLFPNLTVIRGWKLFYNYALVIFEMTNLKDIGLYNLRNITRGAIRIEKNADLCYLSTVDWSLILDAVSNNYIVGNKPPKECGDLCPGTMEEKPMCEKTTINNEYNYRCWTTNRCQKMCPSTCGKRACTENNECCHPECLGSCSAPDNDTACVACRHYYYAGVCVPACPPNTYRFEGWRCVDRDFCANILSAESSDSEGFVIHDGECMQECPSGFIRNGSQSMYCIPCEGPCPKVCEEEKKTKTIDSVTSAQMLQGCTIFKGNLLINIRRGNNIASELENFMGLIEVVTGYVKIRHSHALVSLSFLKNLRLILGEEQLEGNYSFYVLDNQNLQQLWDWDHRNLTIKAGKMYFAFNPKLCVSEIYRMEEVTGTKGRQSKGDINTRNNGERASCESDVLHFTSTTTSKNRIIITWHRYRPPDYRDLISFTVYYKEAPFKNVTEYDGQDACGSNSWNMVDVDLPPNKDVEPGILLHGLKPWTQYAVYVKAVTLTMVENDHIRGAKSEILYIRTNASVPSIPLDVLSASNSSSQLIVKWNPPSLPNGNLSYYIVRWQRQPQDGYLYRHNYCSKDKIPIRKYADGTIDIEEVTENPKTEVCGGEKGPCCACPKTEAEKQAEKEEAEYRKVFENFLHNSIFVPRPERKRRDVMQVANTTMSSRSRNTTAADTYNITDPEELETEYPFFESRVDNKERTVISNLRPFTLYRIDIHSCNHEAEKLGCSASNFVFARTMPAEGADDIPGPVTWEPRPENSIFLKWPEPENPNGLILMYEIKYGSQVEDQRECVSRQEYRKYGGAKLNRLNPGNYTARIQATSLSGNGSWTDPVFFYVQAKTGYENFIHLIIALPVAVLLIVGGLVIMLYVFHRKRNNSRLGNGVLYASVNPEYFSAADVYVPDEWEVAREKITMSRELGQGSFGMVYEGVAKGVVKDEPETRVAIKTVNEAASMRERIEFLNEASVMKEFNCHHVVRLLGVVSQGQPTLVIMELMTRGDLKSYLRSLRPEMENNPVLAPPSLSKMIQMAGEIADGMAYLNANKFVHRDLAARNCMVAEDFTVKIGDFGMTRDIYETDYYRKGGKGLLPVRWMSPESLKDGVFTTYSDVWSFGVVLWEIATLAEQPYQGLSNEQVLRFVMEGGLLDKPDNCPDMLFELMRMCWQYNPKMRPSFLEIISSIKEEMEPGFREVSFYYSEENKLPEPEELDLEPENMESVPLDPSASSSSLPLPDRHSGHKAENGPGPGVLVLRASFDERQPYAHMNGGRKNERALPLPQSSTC
T14 sequence (P43250 whole entry): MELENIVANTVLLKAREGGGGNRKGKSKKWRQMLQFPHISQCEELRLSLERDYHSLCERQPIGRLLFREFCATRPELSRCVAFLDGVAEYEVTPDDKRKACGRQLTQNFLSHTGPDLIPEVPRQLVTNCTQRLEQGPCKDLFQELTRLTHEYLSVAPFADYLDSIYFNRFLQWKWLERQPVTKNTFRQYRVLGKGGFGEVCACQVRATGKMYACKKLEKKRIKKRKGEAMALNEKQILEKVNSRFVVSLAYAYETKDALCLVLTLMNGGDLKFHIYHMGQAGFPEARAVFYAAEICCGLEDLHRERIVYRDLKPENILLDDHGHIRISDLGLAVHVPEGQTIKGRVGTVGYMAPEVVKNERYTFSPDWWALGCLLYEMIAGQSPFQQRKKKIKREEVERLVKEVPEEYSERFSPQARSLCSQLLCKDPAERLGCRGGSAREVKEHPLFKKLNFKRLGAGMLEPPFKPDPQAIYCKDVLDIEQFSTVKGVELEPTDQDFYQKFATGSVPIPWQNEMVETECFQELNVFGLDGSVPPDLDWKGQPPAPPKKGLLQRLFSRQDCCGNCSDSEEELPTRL
T25 sequence (O75676 whole entry): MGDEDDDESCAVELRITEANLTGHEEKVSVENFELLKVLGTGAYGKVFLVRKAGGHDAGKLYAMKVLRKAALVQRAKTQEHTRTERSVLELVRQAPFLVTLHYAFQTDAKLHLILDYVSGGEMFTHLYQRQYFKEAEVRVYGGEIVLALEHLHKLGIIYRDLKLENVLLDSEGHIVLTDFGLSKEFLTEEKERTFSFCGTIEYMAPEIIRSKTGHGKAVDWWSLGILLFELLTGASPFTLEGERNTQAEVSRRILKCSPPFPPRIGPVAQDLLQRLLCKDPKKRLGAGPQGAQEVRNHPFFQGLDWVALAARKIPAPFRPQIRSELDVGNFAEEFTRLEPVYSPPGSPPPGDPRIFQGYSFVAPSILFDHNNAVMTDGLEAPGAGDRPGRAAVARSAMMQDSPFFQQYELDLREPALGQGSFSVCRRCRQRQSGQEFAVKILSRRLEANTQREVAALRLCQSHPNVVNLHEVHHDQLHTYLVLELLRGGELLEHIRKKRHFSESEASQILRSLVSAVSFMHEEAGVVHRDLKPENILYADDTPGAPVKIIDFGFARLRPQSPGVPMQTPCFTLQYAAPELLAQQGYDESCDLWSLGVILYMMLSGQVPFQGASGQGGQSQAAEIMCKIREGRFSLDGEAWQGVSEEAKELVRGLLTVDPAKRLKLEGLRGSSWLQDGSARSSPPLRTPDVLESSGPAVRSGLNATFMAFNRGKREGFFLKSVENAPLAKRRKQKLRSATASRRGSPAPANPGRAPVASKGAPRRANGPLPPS
T5 sequence (Q92918 whole entry): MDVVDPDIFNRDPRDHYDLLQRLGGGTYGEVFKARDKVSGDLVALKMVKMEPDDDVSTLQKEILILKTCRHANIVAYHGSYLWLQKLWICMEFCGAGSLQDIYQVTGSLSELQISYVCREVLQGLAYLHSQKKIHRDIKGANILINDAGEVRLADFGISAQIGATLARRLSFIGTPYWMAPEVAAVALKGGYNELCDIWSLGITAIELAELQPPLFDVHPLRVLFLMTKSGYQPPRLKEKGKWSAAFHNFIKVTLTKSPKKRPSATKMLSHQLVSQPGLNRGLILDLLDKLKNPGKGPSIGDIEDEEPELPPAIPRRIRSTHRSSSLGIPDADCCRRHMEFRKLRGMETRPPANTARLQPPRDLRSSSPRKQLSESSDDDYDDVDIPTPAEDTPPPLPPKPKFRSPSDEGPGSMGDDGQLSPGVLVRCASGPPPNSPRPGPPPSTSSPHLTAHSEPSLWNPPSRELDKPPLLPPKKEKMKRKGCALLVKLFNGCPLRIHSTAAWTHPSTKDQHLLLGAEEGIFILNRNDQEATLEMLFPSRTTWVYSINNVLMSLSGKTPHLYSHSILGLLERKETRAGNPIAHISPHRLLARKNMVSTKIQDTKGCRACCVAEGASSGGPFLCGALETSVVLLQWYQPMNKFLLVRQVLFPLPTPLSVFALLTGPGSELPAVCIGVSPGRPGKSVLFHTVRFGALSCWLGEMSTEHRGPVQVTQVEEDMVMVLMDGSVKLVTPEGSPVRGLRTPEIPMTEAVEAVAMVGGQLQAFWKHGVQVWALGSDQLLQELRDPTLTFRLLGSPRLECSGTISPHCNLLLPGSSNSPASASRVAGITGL
T29 sequence (Q9Y4K4 whole entry): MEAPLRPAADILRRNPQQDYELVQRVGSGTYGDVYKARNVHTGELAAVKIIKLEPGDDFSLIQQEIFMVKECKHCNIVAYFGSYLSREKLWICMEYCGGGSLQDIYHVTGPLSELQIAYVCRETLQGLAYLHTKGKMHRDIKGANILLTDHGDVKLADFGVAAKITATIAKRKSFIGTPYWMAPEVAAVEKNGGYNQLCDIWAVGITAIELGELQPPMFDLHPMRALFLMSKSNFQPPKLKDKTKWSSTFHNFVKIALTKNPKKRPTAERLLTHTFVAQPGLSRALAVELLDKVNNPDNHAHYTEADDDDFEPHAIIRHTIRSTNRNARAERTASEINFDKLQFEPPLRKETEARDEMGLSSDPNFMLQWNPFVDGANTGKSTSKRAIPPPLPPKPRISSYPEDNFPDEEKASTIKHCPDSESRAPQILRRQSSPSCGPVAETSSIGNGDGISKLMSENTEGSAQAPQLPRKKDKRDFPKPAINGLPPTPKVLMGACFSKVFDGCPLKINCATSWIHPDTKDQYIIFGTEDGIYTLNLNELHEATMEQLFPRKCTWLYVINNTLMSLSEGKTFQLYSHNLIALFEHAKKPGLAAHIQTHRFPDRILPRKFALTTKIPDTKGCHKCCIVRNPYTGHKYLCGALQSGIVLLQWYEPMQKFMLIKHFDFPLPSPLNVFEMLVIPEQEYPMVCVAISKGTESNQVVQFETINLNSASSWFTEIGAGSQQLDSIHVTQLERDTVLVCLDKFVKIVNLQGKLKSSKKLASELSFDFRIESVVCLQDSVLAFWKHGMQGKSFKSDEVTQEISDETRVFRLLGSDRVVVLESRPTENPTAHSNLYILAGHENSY

Cc1cc(/C=C/C#N)cc(C)c1Nc1ccnc(Nc2ccc(C#N)cc2)n1 [rilpivirine, (E)-4-((4-((4-(2-cyanoethenyl)-2,6-dimethylphenyl)amino)pyrimidin-2-yl)amino)benzonitrile]
remaining activity at 1 µM [1]: 89% | remaining activity at 1 µM [2]: 89% | remaining activity at 1 µM [3]: 94% | remaining activity at 1 µM [4]: 91% | remaining activity at 1 µM [5]: 62% | remaining activity at 1 µM [6]: 88% | remaining activity at 1 µM [7]: 83% | remaining activity at 1 µM [8]: 45% | remaining activity at 1 µM [9]: 95% | remaining activity at 1 µM [10]: 94% | remaining activity at 1 µM [11]: 94% | remaining activity at 1 µM [12]: 101% | remaining activity at 1 µM [13]: 107% | remaining activity at 1 µM [14]: 97% | remaining activity at 1 µM [15]: 75% | remaining activity at 1 µM [16]: 85% | remaining activity at 1 µM [17]: 94% | remaining activity at 1 µM [18]: 105% | remaining activity at 1 µM [19]: 104% | remaining activity at 1 µM [20]: 95% | remaining activity at 1 µM [21]: 108% | remaining activity at 1 µM [22]: 82% | remaining activity at 1 µM [23]: 91% | remaining activity at 1 µM [24]: 84% | remaining activity at 1 µM [25]: 105% | remaining activity at 1 µM [26]: 54% | remaining activity at 1 µM [27]: 81% | remaining activity at 1 µM [28]: 92% | remaining activity at 1 µM [29]: 34% | remaining activity at 1 µM [30]: 87% | remaining activity at 1 µM [31]: 33% | remaining activity at 1 µM [32]: 48% | remaining activity at 1 µM [33]: 102% | remaining activity at 1 µM [34]: 84% | remaining activity at 1 µM [35]: 88% | remaining activity at 1 µM [36]: 96% | remaining activity at 1 µM [37]: 101% | remaining activity at 1 µM [38]: 84%
